Broadly, the IC50 is the concentration needed to halve the response being measured. High values mean weaker potency in that assay, low ones greater potency in that assay.

Data on 14 compounds can be found in patent US20250214991A1 (Oncopia Therapeutics, Inc. d/b/a/ SK Life Science Labs, priority 2022, published 2025).

In experiment [1] the target is T1, IKZF2 (Homo sapiens (Human), UniProt Q96SW2+Q9UKS7). The experiment is described as follows: In vitro IKZF2 HiBit Assay (HEK293T Flp-in-HiBiT cells). The class given is cell-based. The following applies: HEK293T Flp-in-HiBiT cells, 6 hrs incubation; for DC50: read-out: IKZF2 HiBit DC50; for Dmax: HEK-293T, read-out: IKZF2 HiBit Dmax (%). The procedure, abridged:
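HEK293T Flp-in cells carrying an endogenous N-terminal HiBiT tag on IKZF2 were exposed to compound for 6 h at 0.1% DMSO. The dilution series was 11 doses at 3-fold, diluted from 1 mM. Nano-Glo HiBiT lytic luminescence, normalized to DMSO, gave DC50 for 50% degradation and Dmax across the concentration range, both reported in letter bins.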
A general note: With HiBiT, luminescence reflects the tagged protein that the partner subunit can reach.

Experiment [2] addresses IKZF1 (Homo sapiens (Human), UniProt Q13422+Q96SW2). The experiment is described as follows: In vitro IKZF1 HiBit Assay (HEK293T Flp-in-HiBiT-IKZF1 stable cell line). The class given is cell-based. As to conditions: HEK293T Flp-in-HiBiT-IKZF1 stable cell line, 6 hrs incubation; for DC50: read-out: IKZF1 HiBit DC50; for Dmax: HEK-293T, read-out: IKZF1 HiBit Dmax (%). The procedure, abridged:
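HEK293T Flp-in cells carrying N-terminal HiBiT-tagged IKZF1 were exposed to compound (0.1% DMSO) for 6 h at 3000 cells/well. HiBiT luminescence was read after lytic LgBiT detection. DC50 and Dmax were taken from DMSO-normalized dose-response curves.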

Experiment [3] has as its target CRBN/DDB1 (Homo sapiens (Human), UniProt Q96SW2). The experiment is described as follows: IC50 measurements for binding to CRBN/DDB1 (HTRF). The following applies: His tagged CRBN+DDB, Cy5-labeled Thalidomide probe, one hour. In short, it runs like this: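 HTRF competition binding with 2 nM His-tagged CRBN-DDB1 complex, 60 nM Cy5-thalidomide probe and 0.4 nM anti-His Tb cryptate in 50 mM HEPES pH 7.5, 1 mM TCEP, 0.01% Brij-35, 50 mM NaCl, 0.1% BSA. Read after 1 h at room temperature; IC50 from four-parameter dose-response fit.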

The target in experiment [4] is T1, IKZF2. The experiment is described as follows: In vitro IKZF2 FACS Assay in Jurkat cells. The class given is cell-based. The following applies: 24 hrs; for DC50: half maximal degradation concentration; for Dmax: maximal degradation percentage. The method, then: In vitro IKZF2 FACS Assay
DC50, A: <1 nM; B: 1-10 nM; C: 10-100 nM; D: 100-1000 nM; E: >1000 nM. Dmax, A: >80%; B: 60-80%; C: 40-60%; D: 20-40%; E: <20%.

Sequence of CRBN/DDB1 (Q96SW2 whole entry, species assumed): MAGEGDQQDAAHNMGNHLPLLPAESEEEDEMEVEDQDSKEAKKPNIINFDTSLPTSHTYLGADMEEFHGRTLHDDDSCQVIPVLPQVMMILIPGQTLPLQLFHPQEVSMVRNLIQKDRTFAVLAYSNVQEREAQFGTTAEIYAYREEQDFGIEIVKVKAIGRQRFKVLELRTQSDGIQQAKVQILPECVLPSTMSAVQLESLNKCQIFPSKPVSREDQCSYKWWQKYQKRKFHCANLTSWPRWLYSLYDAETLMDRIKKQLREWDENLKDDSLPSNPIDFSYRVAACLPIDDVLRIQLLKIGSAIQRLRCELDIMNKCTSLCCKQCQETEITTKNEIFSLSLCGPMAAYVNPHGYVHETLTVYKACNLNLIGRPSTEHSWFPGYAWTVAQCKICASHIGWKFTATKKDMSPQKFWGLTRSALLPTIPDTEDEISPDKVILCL
Sequence of CRBN/DDB1 (Q16531 whole entry partner, species assumed): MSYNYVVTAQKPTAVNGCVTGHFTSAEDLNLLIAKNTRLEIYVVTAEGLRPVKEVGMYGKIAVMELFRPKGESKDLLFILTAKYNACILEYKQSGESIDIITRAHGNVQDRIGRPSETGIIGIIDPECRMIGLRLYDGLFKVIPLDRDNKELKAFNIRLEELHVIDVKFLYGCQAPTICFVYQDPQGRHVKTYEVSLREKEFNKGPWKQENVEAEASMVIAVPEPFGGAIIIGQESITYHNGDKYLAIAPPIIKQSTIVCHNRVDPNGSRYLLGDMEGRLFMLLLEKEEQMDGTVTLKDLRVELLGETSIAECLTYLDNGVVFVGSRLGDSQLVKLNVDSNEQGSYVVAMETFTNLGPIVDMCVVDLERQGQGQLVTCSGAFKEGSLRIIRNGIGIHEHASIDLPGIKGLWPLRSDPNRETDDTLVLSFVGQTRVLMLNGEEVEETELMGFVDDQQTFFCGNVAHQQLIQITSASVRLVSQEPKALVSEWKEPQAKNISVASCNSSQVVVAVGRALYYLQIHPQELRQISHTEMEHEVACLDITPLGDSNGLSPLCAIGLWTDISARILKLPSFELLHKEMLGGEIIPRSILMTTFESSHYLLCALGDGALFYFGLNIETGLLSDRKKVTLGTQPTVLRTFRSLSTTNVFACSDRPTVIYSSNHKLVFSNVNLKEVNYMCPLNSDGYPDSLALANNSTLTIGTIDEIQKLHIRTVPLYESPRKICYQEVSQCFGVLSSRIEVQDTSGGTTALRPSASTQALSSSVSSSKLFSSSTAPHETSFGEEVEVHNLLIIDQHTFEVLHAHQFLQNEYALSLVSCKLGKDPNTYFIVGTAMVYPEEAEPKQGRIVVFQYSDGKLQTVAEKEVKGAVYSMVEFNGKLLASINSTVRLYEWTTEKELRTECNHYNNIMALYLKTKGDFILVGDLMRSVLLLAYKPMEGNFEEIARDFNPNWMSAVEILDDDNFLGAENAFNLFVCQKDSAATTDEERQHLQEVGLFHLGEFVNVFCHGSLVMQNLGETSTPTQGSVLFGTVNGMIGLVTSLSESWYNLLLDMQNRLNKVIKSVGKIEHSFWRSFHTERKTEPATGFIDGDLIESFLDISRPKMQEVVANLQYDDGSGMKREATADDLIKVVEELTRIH
T1 sequence (Q9UKS7 whole entry): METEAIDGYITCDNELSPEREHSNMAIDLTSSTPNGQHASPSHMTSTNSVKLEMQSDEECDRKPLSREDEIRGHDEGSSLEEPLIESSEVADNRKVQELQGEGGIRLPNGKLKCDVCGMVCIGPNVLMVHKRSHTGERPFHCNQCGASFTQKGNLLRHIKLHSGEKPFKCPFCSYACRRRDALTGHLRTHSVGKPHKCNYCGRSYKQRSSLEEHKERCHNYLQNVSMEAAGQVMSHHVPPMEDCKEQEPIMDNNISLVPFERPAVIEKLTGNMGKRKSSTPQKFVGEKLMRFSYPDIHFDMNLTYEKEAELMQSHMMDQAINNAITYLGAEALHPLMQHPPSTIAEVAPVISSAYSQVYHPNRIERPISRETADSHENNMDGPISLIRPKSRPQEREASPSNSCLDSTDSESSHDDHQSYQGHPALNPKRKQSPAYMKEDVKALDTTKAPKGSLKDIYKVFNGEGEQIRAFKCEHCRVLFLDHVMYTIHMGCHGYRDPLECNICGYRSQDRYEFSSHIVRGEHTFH
T1 sequence (Q96SW2 whole entry): as the sequence (Q96SW2 whole entry, species assumed) above
T1 sequence (Q16531 2-1140 partner): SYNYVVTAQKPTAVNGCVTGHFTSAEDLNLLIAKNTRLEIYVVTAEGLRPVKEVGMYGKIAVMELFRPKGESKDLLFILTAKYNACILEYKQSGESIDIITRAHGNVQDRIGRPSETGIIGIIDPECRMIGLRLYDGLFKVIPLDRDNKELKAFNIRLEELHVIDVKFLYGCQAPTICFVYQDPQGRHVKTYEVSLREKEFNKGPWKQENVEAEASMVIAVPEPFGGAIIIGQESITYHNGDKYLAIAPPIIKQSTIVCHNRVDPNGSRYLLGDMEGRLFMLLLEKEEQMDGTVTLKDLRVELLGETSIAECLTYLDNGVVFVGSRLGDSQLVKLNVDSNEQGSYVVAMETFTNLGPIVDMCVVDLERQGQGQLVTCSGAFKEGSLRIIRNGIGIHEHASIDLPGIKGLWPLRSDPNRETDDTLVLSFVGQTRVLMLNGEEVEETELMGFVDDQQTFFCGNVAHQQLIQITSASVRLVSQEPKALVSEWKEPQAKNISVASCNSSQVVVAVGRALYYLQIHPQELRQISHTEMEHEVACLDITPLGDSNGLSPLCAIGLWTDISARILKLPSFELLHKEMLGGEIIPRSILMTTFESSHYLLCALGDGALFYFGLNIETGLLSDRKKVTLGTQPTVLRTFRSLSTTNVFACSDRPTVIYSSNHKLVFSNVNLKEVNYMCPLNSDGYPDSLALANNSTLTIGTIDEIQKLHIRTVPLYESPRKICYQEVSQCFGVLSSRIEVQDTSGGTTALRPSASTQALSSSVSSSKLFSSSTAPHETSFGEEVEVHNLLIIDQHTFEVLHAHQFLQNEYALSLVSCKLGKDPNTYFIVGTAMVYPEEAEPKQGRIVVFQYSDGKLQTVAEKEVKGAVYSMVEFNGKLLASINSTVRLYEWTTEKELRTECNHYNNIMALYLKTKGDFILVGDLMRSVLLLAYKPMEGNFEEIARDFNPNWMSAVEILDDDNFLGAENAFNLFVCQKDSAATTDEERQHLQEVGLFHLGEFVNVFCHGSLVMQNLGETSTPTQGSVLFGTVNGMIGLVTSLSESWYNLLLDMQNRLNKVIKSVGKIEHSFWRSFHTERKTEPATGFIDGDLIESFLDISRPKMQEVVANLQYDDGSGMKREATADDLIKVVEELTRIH
Sequence of IKZF1 (Q13422 whole entry): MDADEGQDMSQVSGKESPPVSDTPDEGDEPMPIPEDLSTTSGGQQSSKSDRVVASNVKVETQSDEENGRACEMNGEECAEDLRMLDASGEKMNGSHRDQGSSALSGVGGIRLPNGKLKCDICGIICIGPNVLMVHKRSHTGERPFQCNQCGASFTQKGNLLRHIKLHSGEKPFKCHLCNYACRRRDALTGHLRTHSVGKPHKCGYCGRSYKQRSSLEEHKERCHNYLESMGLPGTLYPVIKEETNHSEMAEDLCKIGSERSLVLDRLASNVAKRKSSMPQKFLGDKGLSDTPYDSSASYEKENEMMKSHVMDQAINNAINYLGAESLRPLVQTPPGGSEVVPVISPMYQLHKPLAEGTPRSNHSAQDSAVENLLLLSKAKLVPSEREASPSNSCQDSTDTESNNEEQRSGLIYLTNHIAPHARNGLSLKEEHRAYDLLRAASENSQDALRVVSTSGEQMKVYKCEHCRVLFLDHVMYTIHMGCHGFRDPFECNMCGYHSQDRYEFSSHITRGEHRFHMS
Sequence of IKZF1 (Q96SW2 whole entry): as the sequence (Q96SW2 whole entry, species assumed) above
Sequence of IKZF1 (Q16531 2-1140 partner): as the sequence (Q16531 2-1140 partner) above

For `Nc1n[nH]c2c(CN3CCC(O)CC3)cc(-c3ccc4c(c3)CN(C3CCC(=O)NC3=O)C4=O)nc12` (centres unmarked) [Example 205, 3-(5-(3-amino-7-((4-hydroxypiperidin-1-yl)methyl)-1H-pyrazolo[4,3-b]pyridin-5-yl)-1-oxoisoindolin-2-yl) piperidine-2,6-dione], the DC50 fell in the range of 10 to 100 nM in experiment [1], 1000 to 10000 nM in experiment [2] and 100 to 1000 nM in experiment [4]. Further, the Dmax in experiment [1] was 60 to 80%; in experiment [2] it was 20 to 40%; in experiment [4], 60 to 80%. The IC50 in experiment [3] was 500 to 1000 nM.
For `O=C1CCC(N2Cc3cc(-c4cc(CN5CCCC5)c5ncn(C6CCC6)c5n4)ccc3C2=O)C(=O)N1` (centres unmarked) [Example 209, 3-(5-(3-cyclobutyl-7-(pyrrolidin-1-ylmethyl)-3H-imidazo[4,5-b]pyridin-5-yl)-1-oxoisoindolin-2-yl) piperidine-2,6-dione], the DC50 is 1 to 10 nM in experiment [1], over 10000 nM in experiment [2] and 10 to 100 nM in experiment [4]. In addition, the values for the Dmax in experiment [1], in experiment [2] and in experiment [4] were over 80%, under 20% and over 80%, respectively. In experiment [3], this compound showed an IC50 of 1000 to 5000 nM.
In the case of `Nc1nn(C2CC2)c2c(CN3CCCC3)cc(-c3ccc4c(c3)CN(C3CCC(=O)NC3=O)C4=O)nc12` (centres unmarked) [Example 210, 3-(5-(3-amino-1-cyclopropyl-7-(pyrrolidin-1-ylmethyl)-1H-pyrazolo[4,3-b]pyridin-5-yl)-1-oxoisoindolin-2-yl) piperidine-2,6-dione], the DC50 was in the range of 1 to 10 nM in experiment [1], 100 to 1000 nM in experiment [2] and 1 to 10 nM in experiment [4]. The Dmax in experiment [1] is over 80%; in experiment [2], 40 to 60%; in experiment [4], over 80%. The same compound yielded a half-maximal inhibitory concentration (IC50) in experiment [3] of 500 to 1000 nM.
For `O=C1CCC(N2Cc3cc(-c4cc(CN5CCCC5)c5ncn(C6COC6)c5n4)ccc3C2=O)C(=O)N1` (centres unmarked) [Example 211, 3-(5-(3-(oxetan-3-yl)-7-(pyrrolidin-1-ylmethyl)-3H-imidazo[4,5-b]pyridin-5-yl)-1-oxoisoindolin-2-yl) piperidine-2,6-dione], the values for the DC50 in experiment [1], in experiment [2] and in experiment [4] were 10 to 100 nM, over 10000 nM and 10 to 100 nM, respectively. For the same compound, the Dmax in experiment [1] is 60 to 80%; in experiment [2] it was under 20%; in experiment [4], 60 to 80%. The compound also had an IC50 in experiment [3] of 500 to 1000 nM.
For `Nc1n[nH]c2c(CN3CCC(F)CC3)cc(-c3ccc4c(c3)CN(C3CCC(=O)NC3=O)C4=O)nc12` (centres unmarked) [Example 212, 3-(5-(3-amino-7-((4-fluoropiperidin-1-yl)methyl)-1H-pyrazolo[4,3-b]pyridin-5-yl)-1-oxoisoindolin-2-yl) piperidine-2,6-dione], the results for the DC50 in experiment [1], in experiment [2] and in experiment [4] were 1 to 10 nM, 1 to 10 nM and 10 to 100 nM, respectively. The Dmax in experiment [1] was 60 to 80%; in experiment [2] it was 20 to 40%; in experiment [4] it was over 80%. The same compound gave an IC50 in experiment [3] of under 100 nM.
Turning to `Nc1n[nH]c2c(CN3CC4COCC(C4)C3)cc(-c3ccc4c(c3)CN(C3CCC(=O)NC3=O)C4=O)nc12` (centres unmarked) [Example 215, 3-(5-(7-((3-oxa-7-azabicyclo[3.3.1]nonan-7-yl)methyl)-3-amino-1H-pyrazolo[4,3-b]pyridin-5-yl)-1-oxoisoindolin-2-yl) piperidine-2,6-dione], the DC50 was 10 to 100 nM in experiment [1], 100 to 1000 nM in experiment [2] and 10 to 100 nM in experiment [4]. Also, the Dmax in experiment [1] was over 80%; in experiment [2], 20 to 40%; in experiment [4], over 80%. Moreover, the concentration for half-maximal inhibition (IC50) in experiment [3] is 100 to 500 nM.
With `Nc1n[nH]c2c(CN3CCC4(CC3)COC4)cc(-c3ccc4c(c3)CN(C3CCC(=O)NC3=O)C4=O)nc12` (centres unmarked) [Example 216, 3-(5-(7-((2-oxa-7-azaspiro[3.5]nonan-7-yl)methyl)-3-amino-1H-pyrazolo[4,3-b]pyridin-5-yl)-1-oxoisoindolin-2-yl) piperidine-2,6-dione], the DC50 was 10 to 100 nM in experiment [1], 100 to 1000 nM in experiment [2] and 100 to 1000 nM in experiment [4]. Further, the Dmax in experiment [1] is 60 to 80%; in experiment [2], 20 to 40%; in experiment [4], 60 to 80%. This compound also gave an IC50 in experiment [3] of 1000 to 5000 nM.
With `O=C1CCC(N2Cc3cc(-c4nc(CN5CCCC5)c5ccn(C6COC6)c5n4)ccc3C2=O)C(=O)N1` (centres unmarked) [Example 218, 3-(5-(7-(oxetan-3-yl)-4-(pyrrolidin-1-ylmethyl)-7H-pyrrolo[2,3-d]pyrimidin-2-yl)-1-oxoisoindolin-2-yl) piperidine-2,6-dione], the DC50 in experiment [1] lay in the range of 1 to 10 nM; in experiment [2], 100 to 1000 nM; in experiment [4], 10 to 100 nM. The figures for the Dmax in experiment [1], in experiment [2] and in experiment [4] were 60 to 80%, 20 to 40% and 60 to 80%, respectively. The compound also came in with a half-inhibitory concentration (IC50) in experiment [3] of 500 to 1000 nM.
As for `O=C1CCC(N2Cc3cc(-c4nc5[nH]ccc5c(CN5CCCC5)c4Cl)ccc3C2=O)C(=O)N1` (centres unmarked) [Example 221, 3-(5-(5-chloro-4-(pyrrolidin-1-ylmethyl)-1H-pyrrolo[2,3-b]pyridin-6-yl)-1-oxoisoindolin-2-yl) piperidine-2,6-dione], the results for the DC50 in experiment [1], in experiment [2] and in experiment [4] were 1 to 10 nM, over 10000 nM and 1 to 10 nM, respectively. For the same compound, the Dmax in experiment [1] is over 80%; in experiment [2], under 20%; in experiment [4] it was over 80%. In experiment [3], this compound gave an IC50 of 100 to 500 nM.
With `O=C1CCC(N2Cc3c(ccc(-c4cc(CN5CCCC5)c5ccn(C6CS(=O)(=O)C6)c5n4)c3F)C2=O)C(=O)N1` (centres unmarked) [Example 222, 3-(5-(1-(1,1-dioxidothietan-3-yl)-4-(pyrrolidin-1-ylmethyl)-1H-pyrrolo[2,3-b]pyridin-6-yl)-4-fluoro-1-oxoisoindolin-2-yl) piperidine-2,6-dione], the figures for the DC50 in experiment [1], in experiment [2] and in experiment [4] were 1 to 10 nM, 10 to 100 nM and 1 to 10 nM, respectively. Besides, the Dmax in experiment [1] is over 80%; in experiment [2] it was 20 to 40%; in experiment [4], over 80%. Moreover, in experiment [3], the IC50 lay within 100 to 500 nM.
Turning to `O=C1CCC(N2Cc3c(ccc(-c4cc(CN5CCCC5)c5ccn(C6COC6)c5n4)c3F)C2=O)C(=O)N1` (centres unmarked) [Example 223, 3-(4-fluoro-5-(1-(oxetan-3-yl)-4-(pyrrolidin-1-ylmethyl)-1H-pyrrolo[2,3-b]pyridin-6-yl)-1-oxoisoindolin-2-yl) piperidine-2,6-dione], the results for the DC50 in experiment [1], in experiment [2] and in experiment [4] were under 1 nM, 1 to 10 nM and 1 to 10 nM, respectively. For the same compound, the Dmax in experiment [1] was 60 to 80%; in experiment [2] it was 20 to 40%; in experiment [4], over 80%. The same compound returned an IC50 in experiment [3] of 100 to 500 nM.
For `CC(C)Nc1n[nH]c2c(CN3CCCC3)cc(-c3ccc4c(c3F)CN(C3CCC(=O)NC3=O)C4=O)nc12` (centres unmarked) [Example 226, 3-(4-fluoro-5-(3-(isopropylamino)-7-(pyrrolidin-1-ylmethyl)-1H-pyrazolo[4,3-b]pyridin-5-yl)-1-oxoisoindolin-2-yl) piperidine-2,6-dione], the DC50 in experiment [1] was under 1 nM; in experiment [2], over 10000 nM; in experiment [4] it was 1 to 10 nM. The Dmax is over 80% in experiment [1], under 20% in experiment [2] and over 80% in experiment [4]. The compound further had an IC50 in experiment [3] of 100 to 500 nM.
As to `CC(C)Nc1n[nH]c2c(CN3CCCC3)cc(-c3ccc4c(c3Cl)CN(C3CCC(=O)NC3=O)C4=O)nc12` (centres unmarked) [Example 227, 3-(4-chloro-5-(3-(isopropylamino)-7-(pyrrolidin-1-ylmethyl)-1H-pyrazolo[4,3-b]pyridin-5-yl)-1-oxoisoindolin-2-yl) piperidine-2,6-dione], the DC50 is 1 to 10 nM in experiment [1], over 10000 nM in experiment [2] and 10 to 100 nM in experiment [4]. For the same compound, the figures for the Dmax in experiment [1], in experiment [2] and in experiment [4] were 60 to 80%, under 20% and over 80%, respectively. In addition, the IC50 in experiment [3] was in the range of 500 to 1000 nM.
With `O=C1CCC(N2Cc3c(ccc(-c4cc(CN5CCCC5)c5ccn(C6COC6)c5n4)c3Cl)C2=O)C(=O)N1` (centres unmarked) [Example 228, 3-(4-chloro-5-(1-(oxetan-3-yl)-4-(pyrrolidin-1-ylmethyl)-1H-pyrrolo[2,3-b]pyridin-6-yl)-1-oxoisoindolin-2-yl) piperidine-2,6-dione], the figures for the DC50 in experiment [1], in experiment [2] and in experiment [4] were 1 to 10 nM, over 10000 nM and 10 to 100 nM, respectively. Further, the Dmax in experiment [1] was 60 to 80%; in experiment [2] it was under 20%; in experiment [4], 60 to 80%. The same compound displayed an IC50 in experiment [3] of 100 to 500 nM.
